US7074789B2, “Kinase inhibitors” (Amgen Inc., priority 1999, dated 2006)
Like-named read-outs stand apart in the source and are kept apart here.

Key:
Assay type in all cases: biochemical
[1] = target: T1, PDGFRB (Homo sapiens, UniProt P09619); test: Kinase inhibition assay (33P transfer), PDGFRB; conditions: read-out: PDGFRB-1
T1 construct: Kinases are expressed as either kinase domains or full length constructs; made in house

[2] = target: T2, Zap-70 (Homo sapiens, UniProt P43403); test: Kinase inhibition assay (33P transfer), Zap-70; conditions: read-out: Zap-1
T2 construct: Kinases are expressed as either kinase domains or full length constructs; made in house
T2 sequence (P43403 1-619): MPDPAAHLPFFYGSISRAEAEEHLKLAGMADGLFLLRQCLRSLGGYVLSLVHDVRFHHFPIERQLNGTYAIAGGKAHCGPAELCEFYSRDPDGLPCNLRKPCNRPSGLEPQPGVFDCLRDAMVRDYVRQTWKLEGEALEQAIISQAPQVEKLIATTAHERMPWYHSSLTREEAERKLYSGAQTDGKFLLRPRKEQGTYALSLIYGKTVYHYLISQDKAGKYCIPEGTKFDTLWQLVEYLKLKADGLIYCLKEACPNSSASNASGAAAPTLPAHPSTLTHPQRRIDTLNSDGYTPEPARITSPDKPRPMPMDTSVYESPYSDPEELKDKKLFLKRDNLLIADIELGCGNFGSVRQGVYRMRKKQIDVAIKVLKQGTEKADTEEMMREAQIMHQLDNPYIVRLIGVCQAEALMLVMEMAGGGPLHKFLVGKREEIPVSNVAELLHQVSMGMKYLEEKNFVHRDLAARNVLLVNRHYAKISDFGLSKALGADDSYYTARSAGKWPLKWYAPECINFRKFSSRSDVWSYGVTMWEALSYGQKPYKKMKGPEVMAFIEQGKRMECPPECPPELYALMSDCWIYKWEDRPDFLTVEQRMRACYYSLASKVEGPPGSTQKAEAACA
Procedure, shortened: (§1)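 Each kinase, expressed as a GST- or polyHis-tagged domain or full-length protein, phosphorylated plate-attached poly(Glu,Tyr) 4:1 or poly(Arg,Ser) 3:1 using 33P-ATP. Bound radioactivity was measured by scintillation after a 0.5% phosphoric acid wash.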

[3] = target: T3, Fyn (Homo sapiens, UniProt P06241); test: Kinase inhibition assay (33P transfer), Fyn; conditions: read-out: Fyn-1
T3 construct: Kinases are expressed as either kinase domains or full length constructs; made in house
Description: (§2) The inhibitor compounds described herein are screened in the following manner. Kinases suitable for use in the following protocol to determine kinase activity of the compounds described herein include, -but are not limited to: Lck, Lyn, Src, Fyn, Syk, Zap-70, Itk, Tec, Btk, EGFR, ErbB2, Kdr, Flt-1, Flt-3, Tek, c-Met, InsR, and AKT.
(§3) Kinases are expressed as either kinase domains or full length constructs fused to glutathione S-transferase (GST) or polyHistidine tagged fusion proteins in either E. colior Baculovirus-High Five expression systems. They are purified to near homogeneity by affinity chromatography essentially as previously described (Lehr et al., 1996; Gish et al., 1995). In some instances, kinases are co-expressed or mixed with purified or partially purified regulatory polypeptides prior to measurement of activity.
(§4) Kinase activity and inhibition are measured essentially by established protocols (Braunwalder et al., 1996). Briefly, The transfer of ^33PO4 from ATP to the synthetic substrates poly(Glu, Tyr) 4:1 or poly(Arg, Ser) 3:1 attached to the bioactive surface of microtiter plates serves as the basis to evaluate enzyme activity. After an incubation period, the amount of phosphate transferred is measured by first washing the plate with 0.5% phosphoric acid, adding liquid scintillant, and then counting in a liquid scintillation detector. The IC50 is determined by the concentration of compound that causes a 50% reduction in the amount of […] incorporated onto the substrate bound to the plate.

[4] = target: T4, Lyn (Homo sapiens, UniProt P07948); test: Kinase inhibition assay (33P transfer), Lyn; conditions: Table 6, Lyn-1 kinase inhibition class
T4 construct: Kinases are expressed as either kinase domains or full length constructs; made in house
Description: as §2, §3, §4

[5] = target: T5, Kdr (Homo sapiens, UniProt P35968); test: Kinase inhibition assay (33P transfer), Kdr; conditions: read-out: KDR-1
T5 construct: Kinases are expressed as either kinase domains or full length constructs; made in house
Procedure, shortened: as §1

[6] = target: T6, c-Met (Homo sapiens, UniProt P08581); test: Kinase inhibition assay (33P transfer), c-Met; conditions: Table 2, kinase inhibition class; read-out: Met-1
T6 construct: Kinases are expressed as either kinase domains or full length constructs; made in house
Procedure, shortened: (§5)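 GST/His-fusion kinases, E. coli or High Five expressed, affinity purified; 33P-ATP, plate-coated poly(Glu,Tyr) 4:1 or poly(Arg,Ser) 3:1; 0.5% H3PO4 wash, scintillant, LSC.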

[7] = target: T7, Hck-1 (Homo sapiens, UniProt P08631); test: Kinase inhibition assay (33P transfer), Hck; conditions: Table 6, Hck-1 kinase inhibition class
T7 construct: Kinases are expressed as either kinase domains or full length constructs; made in house

[8] = target: T8, Itk (Homo sapiens, UniProt Q08881); test: Kinase inhibition assay (33P transfer), Itk; conditions: read-out: Itk-1
T8 construct: Kinases are expressed as either kinase domains or full length constructs; made in house
T8 sequence (Q08881 1-620): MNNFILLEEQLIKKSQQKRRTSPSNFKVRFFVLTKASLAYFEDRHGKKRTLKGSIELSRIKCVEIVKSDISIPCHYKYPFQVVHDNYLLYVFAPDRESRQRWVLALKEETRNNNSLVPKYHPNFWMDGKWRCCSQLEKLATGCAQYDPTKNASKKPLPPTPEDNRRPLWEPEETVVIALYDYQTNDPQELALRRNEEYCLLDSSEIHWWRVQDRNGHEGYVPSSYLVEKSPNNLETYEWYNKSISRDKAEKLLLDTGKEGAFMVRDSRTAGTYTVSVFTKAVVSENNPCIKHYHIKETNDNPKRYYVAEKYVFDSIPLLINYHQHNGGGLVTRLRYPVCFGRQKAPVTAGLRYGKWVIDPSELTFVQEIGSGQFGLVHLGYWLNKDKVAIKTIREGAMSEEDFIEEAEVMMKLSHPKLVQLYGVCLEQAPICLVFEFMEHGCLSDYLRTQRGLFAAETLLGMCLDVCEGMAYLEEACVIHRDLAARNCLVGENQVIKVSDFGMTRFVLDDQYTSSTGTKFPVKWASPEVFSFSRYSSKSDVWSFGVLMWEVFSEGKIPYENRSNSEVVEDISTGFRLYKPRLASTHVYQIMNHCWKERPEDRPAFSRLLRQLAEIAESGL
Procedure, shortened: as §5

[9] = target: T9, AKT (Homo sapiens, UniProt Q9Y243); test: Kinase inhibition assay (33P transfer), AKT; conditions: Table 2, kinase inhibition class; read-out: AKT3-1
T9 construct: Kinases are expressed as either kinase domains or full length constructs; made in house
Procedure, shortened: as §1

[10] = target: T10, ErbB4 (Homo sapiens, UniProt Q15303); test: Kinase inhibition assay (33P transfer), ErbB4; conditions: read-out: ErbB4-1
T10 construct: Kinases are expressed as either kinase domains or full length constructs; made in house

[11] = target: T11, Src (Homo sapiens, UniProt P12931); test: Kinase inhibition assay (33P transfer), Src; conditions: Table 6, Src-1 kinase inhibition class
T11 construct: Kinases are expressed as either kinase domains or full length constructs; made in house
Description: as §2, §3, §4

[12] = target: T12, Tek (Homo sapiens, UniProt Q02763); test: Kinase inhibition assay (33P transfer), Tek; conditions: read-out: Tek-1
T12 construct: Kinases are expressed as either kinase domains or full length constructs; made in house
Procedure, shortened: as §5

[13] = target: T13, EGFR (Homo sapiens, UniProt P00533); test: Kinase inhibition assay (33P transfer), EGFR; conditions: Table 2, kinase inhibition class; read-out: EGFR-1
T13 construct: Kinases are expressed as either kinase domains or full length constructs; made in house
Procedure, shortened: as §5

[14] = target: T14, FGFR1 (Homo sapiens, UniProt P11362); test: Kinase inhibition assay (33P transfer), FGFR1; conditions: read-out: FGFR1-1
T14 construct: Kinases are expressed as either kinase domains or full length constructs; made in house

[15] = target: T15, Flt-1 (Homo sapiens, UniProt P17948); test: Kinase inhibition assay (33P transfer), Flt-1
T15 construct: Kinases are expressed as either kinase domains or full length constructs; made in house
Description: as §2, §3, §4

[16] = target: T16, Lck (Homo sapiens, UniProt P06239); test: Kinase inhibition assay (33P transfer), Lck; conditions: read-out: Lck-1
T16 construct: Kinases are expressed as either kinase domains or full length constructs; made in house
Procedure, shortened: as §1

[17] = target: T17, IGFR-1 (Homo sapiens, UniProt P08069); test: Kinase inhibition assay (33P transfer), IGFR-1; conditions: Table 2, kinase inhibition class
T17 construct: Kinases are expressed as either kinase domains or full length constructs; made in house

[18] = target: T18, ErbB2 (Homo sapiens, UniProt P04626); test: Kinase inhibition assay (33P transfer), ErbB2; conditions: read-out: ErbB2-2
T18 construct: Kinases are expressed as either kinase domains or full length constructs; made in house
Procedure, shortened: as §5

[19] = target: T17, IGFR-1; test: Kinase inhibition assay, IGFR-1 (Table 2); conditions: Table 2, kinase inhibition class

T1 sequence (P09619 33-1106, species assumed): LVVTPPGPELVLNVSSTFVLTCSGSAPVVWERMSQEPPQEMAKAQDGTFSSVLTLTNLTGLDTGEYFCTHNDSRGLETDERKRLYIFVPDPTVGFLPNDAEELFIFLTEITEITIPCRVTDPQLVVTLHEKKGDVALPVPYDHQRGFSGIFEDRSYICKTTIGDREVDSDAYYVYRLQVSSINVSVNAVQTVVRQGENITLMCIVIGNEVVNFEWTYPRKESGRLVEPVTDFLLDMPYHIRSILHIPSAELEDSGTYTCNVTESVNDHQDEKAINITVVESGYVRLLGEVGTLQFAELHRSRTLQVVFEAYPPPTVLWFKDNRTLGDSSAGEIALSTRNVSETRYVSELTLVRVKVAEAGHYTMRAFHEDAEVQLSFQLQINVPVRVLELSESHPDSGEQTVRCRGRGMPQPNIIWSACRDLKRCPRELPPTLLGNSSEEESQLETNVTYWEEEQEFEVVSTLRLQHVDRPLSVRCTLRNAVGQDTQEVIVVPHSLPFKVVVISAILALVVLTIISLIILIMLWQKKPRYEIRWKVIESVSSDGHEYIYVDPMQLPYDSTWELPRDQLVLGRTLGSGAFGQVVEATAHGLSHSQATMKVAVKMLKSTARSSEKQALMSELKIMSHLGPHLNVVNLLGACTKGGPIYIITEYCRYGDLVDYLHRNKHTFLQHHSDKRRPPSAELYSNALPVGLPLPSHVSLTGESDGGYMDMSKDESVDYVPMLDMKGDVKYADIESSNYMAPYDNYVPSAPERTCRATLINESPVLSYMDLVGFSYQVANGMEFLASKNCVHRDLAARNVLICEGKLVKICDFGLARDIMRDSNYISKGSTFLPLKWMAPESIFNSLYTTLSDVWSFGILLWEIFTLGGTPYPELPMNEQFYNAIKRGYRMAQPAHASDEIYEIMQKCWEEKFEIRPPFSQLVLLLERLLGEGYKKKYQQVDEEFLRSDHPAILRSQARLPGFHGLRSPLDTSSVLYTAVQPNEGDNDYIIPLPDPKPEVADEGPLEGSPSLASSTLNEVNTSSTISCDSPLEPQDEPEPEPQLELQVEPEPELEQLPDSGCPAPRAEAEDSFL
T15 sequence (P17948 27-1338, species assumed): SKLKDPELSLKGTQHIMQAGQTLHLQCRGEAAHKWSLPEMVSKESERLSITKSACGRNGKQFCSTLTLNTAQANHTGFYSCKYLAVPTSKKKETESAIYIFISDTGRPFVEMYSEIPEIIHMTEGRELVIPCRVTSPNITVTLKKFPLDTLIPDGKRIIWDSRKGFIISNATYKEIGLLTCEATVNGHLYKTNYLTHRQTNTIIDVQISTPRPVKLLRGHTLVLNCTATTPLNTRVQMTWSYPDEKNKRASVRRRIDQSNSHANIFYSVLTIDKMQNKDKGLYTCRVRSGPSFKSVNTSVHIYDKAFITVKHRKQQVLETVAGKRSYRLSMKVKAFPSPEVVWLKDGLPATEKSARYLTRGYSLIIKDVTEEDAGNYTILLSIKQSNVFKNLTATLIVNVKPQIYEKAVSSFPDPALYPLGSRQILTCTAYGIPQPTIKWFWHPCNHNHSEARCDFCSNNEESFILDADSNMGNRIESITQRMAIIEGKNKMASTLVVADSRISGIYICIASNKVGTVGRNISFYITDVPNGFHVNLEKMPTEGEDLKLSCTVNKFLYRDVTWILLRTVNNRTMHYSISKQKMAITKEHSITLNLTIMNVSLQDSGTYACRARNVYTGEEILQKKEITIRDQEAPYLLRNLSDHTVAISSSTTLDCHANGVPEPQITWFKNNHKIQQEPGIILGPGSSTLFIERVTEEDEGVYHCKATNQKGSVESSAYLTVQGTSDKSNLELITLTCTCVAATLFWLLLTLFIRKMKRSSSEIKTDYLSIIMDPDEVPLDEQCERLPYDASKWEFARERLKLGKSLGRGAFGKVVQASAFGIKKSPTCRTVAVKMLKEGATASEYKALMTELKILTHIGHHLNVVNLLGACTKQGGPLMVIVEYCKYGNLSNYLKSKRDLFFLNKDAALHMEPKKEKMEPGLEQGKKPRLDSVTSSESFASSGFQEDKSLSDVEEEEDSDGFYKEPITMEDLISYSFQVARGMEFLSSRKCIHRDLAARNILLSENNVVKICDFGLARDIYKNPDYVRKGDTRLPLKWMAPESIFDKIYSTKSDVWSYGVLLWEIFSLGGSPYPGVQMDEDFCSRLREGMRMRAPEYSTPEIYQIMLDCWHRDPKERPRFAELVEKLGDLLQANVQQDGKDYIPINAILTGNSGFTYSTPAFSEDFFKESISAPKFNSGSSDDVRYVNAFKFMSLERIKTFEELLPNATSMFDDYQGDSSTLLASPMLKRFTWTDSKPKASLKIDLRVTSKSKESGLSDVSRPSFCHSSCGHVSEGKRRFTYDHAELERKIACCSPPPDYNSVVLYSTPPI
T16 sequence (P06239 whole entry, species assumed, the tested form may be a part): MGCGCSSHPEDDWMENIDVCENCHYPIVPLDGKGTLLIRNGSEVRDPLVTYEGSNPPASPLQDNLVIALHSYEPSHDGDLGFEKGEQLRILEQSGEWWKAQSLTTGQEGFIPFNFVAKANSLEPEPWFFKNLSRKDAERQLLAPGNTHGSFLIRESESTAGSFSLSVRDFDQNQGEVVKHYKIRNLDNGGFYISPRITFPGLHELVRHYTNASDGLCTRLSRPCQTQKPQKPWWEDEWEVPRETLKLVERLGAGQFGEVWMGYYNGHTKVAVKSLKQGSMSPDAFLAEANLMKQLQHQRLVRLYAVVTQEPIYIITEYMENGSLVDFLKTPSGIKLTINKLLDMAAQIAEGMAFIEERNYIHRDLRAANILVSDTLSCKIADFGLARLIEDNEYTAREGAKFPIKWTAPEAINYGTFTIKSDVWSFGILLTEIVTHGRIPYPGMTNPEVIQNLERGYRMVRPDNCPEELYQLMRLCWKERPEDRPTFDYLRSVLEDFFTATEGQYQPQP
T14 sequence (P11362 22-822, species assumed): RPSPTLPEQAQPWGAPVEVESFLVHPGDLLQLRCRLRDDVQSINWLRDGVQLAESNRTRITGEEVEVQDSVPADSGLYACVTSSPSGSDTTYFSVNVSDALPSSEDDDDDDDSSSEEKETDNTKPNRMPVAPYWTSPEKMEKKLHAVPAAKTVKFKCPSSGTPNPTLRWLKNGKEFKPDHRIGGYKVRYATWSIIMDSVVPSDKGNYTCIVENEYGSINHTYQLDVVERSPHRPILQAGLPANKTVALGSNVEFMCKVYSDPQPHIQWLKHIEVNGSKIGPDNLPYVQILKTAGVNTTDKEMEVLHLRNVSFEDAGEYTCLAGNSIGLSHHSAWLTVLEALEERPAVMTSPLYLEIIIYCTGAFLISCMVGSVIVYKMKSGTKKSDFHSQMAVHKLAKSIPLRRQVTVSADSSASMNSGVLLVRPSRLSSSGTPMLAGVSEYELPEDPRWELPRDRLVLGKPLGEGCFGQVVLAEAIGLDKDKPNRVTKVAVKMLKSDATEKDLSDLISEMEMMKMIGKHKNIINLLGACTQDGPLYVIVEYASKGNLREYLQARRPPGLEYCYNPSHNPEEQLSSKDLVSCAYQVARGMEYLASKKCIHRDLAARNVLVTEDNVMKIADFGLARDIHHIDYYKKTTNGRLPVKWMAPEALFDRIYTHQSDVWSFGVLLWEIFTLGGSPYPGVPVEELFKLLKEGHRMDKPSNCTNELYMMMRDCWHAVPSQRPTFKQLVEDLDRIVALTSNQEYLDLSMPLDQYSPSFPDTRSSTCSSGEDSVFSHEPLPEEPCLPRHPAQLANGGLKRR
T5 sequence (P35968 20-1356, species assumed): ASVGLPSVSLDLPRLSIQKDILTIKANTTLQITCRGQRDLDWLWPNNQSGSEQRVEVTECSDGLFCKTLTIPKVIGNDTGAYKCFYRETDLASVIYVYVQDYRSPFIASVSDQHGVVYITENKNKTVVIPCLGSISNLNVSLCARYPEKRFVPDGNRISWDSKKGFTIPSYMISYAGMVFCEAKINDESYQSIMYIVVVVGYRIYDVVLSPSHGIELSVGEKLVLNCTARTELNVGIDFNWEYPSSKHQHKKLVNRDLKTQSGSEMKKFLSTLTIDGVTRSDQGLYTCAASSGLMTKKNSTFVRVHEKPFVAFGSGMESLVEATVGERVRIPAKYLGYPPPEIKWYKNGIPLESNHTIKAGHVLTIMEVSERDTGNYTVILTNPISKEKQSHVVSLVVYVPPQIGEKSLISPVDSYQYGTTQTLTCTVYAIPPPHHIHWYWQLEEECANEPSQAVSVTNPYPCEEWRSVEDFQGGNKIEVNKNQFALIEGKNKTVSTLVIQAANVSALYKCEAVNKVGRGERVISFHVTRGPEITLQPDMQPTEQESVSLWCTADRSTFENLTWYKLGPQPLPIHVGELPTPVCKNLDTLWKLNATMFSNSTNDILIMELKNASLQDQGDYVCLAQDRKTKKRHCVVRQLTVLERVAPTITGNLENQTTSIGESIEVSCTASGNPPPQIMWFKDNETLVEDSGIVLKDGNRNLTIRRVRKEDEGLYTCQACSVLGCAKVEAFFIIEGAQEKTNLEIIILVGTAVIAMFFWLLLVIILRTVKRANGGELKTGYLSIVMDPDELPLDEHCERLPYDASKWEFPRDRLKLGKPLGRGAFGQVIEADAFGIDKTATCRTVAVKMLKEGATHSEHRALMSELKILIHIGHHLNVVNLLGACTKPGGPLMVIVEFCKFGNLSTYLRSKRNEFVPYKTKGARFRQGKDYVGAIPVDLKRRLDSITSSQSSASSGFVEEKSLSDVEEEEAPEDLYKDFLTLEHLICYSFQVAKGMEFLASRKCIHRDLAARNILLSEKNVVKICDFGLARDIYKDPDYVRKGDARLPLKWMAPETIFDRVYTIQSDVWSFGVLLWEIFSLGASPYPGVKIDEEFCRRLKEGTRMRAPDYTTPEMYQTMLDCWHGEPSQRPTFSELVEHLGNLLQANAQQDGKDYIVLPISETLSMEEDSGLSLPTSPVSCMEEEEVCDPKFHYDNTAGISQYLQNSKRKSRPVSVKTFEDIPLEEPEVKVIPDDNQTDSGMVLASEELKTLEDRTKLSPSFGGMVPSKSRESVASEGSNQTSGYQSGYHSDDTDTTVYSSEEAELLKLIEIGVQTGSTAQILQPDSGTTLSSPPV

COc1cc(Nc2ncnc(-n3c(N)nc4ccccc43)n2)cc(OCCN2CCOCC2)c1OC [Compound 466]
IC50 [1]: < 0.812 µM | IC50 ([2]; Table 3): > 9.14 µM | IC50 [3]: 0.812 to 4.87 µM | IC50 [4]: < 0.812 µM | IC50 ([5]; Table 3): < 0.812 µM | IC50 [6]: 0.812 to 4.87 µM | IC50 [7]: > 9.14 µM | IC50 ([8]; Table 3): 4.87 to 7.11 µM | IC50 [9]: > 9.14 µM | IC50 [10]: > 9.14 µM | IC50 [11]: 0.812 to 4.87 µM | IC50 [12]: 7.11 to 9.14 µM | IC50 [13]: > 9.14 µM | IC50 [14]: < 0.812 µM | IC50 [15]: < 0.812 µM | IC50 ([16]; Table 3): < 0.812 µM

COc1ccc(Nc2ncnc(Nc3ccc(OC)c(OC)c3)n2)cc1OC [Compound 63]
IC50 [1]: 1.04 to 6.26 µM | IC50 ([2]; Table 3): > 11.7 µM | IC50 ([5]; Table 3): 1.04 to 6.26 µM | IC50 [6]: > 11.7 µM | IC50 [17]: > 11.7 µM | IC50 ([8]; Table 3): > 11.7 µM | IC50 [9]: > 11.7 µM | IC50 [12]: > 11.7 µM | IC50 [13]: > 11.7 µM | IC50 ([16]; Table 3): > 11.7 µM

COc1cc(Nc2ncnc(-n3ccc4cc(F)ccc43)n2)cc(OC)c1OC [Compound 441]
IC50 [1]: < 1.01 µM | IC50 ([2]; Table 3): > 11.4 µM | IC50 [3]: 1.01 to 6.07 µM | IC50 [4]: > 11.4 µM | IC50 ([5]; Table 3): < 1.01 µM | IC50 [6]: > 11.4 µM | IC50 [7]: > 11.4 µM | IC50 ([8]; Table 3): > 11.4 µM | IC50 [9]: > 11.4 µM | IC50 [10]: > 11.4 µM | IC50 [11]: > 11.4 µM | IC50 [12]: > 11.4 µM | IC50 [13]: > 11.4 µM | IC50 [14]: > 11.4 µM | IC50 [15]: 1.01 to 6.07 µM | IC50 ([16]; Table 3): 6.07 to 8.85 µM

CC(=O)NCc1ccc(Nc2ncnc(Nc3cc(-c4ccco4)n[nH]3)n2)cc1 [Compound 443]
IC50 [1]: 1.02 to 6.15 µM | IC50 ([2]; Table 3): > 11.5 µM | IC50 [3]: 6.15 to 8.97 µM | IC50 [4]: 1.02 to 6.15 µM | IC50 ([5]; Table 3): < 1.02 µM | IC50 [6]: 1.02 to 6.15 µM | IC50 [7]: > 11.5 µM | IC50 ([8]; Table 3): 1.02 to 6.15 µM | IC50 [9]: > 11.5 µM | IC50 [10]: 1.02 to 6.15 µM | IC50 [11]: 6.15 to 8.97 µM | IC50 [12]: > 11.5 µM | IC50 [13]: 1.02 to 6.15 µM | IC50 [14]: 1.02 to 6.15 µM | IC50 [15]: 1.02 to 6.15 µM | IC50 ([16]; Table 3): > 11.5 µM

COc1cc(Nc2ncnc(N3CCCc4cc(C)ccc43)n2)cc(OC)c1OC [Compound 498]
IC50 [2]: > 11 µM | IC50 [4]: < 0.982 µM | IC50 [7]: > 11 µM | IC50 [18]: 0.982 to 5.89 µM | IC50 [8]: > 11 µM | IC50 [9]: > 11 µM | IC50 [10]: 0.982 to 5.89 µM | IC50 [11]: < 0.982 µM | IC50 [12]: 8.59 to 11 µM | IC50 [19]: > 11 µM | IC50 [13]: < 0.982 µM

CCN(CC)C(=O)C1CCCN(c2ncnc(Nc3cc(OC)c(OC)c(OC)c3)n2)C1 (centres unmarked) [Compound 615]
IC50 [1]: > 10.1 µM | IC50 [2]: > 10.1 µM | IC50 [5]: > 10.1 µM | IC50 [6]: > 10.1 µM | IC50 [18]: > 10.1 µM | IC50 [8]: 7.87 to 10.1 µM | IC50 [9]: > 10.1 µM | IC50 [12]: > 10.1 µM | IC50 [19]: > 10.1 µM | IC50 [13]: > 10.1 µM | IC50 [16]: 7.87 to 10.1 µM
